From patent US20030143634A1, “Method to detect interactions between cellular components in intact living cells, and to extract quantitative information relating to those interactions by fluorescence redistribution” (Biolmage A/S, priority 2001, published 2003)

Legend:
FRB(T2098L) and FKBP [1] = target: T1, FRB(T2098L) and FKBP (Homo sapiens, UniProt P42345+P62942, T2098L); test: 3-part ActinPaint iGRIP system, response to dimerizer; type: cell-based; details: CHO cells, 800 nM AP21967, 37° C.
T1 construct: expressed in transfected cells; host or cells: CHO
Text: (§1) In this specific example, the 3 components of this second system were as follows:
(§2) 1) The anchor conjugate was made by fusing the F-actin binding domain of α-actinin (amino acids 1-133 of full protein sequence) to FRB(T2098L) [ps1570] (also referred to as FRB*). The cellular localization of the anchor could be detected with an antibody directed against the HA-tag included in the anchor fusion protein
(§3) 2) The mediator conjugate [ps1556] comprised wild-type FKBP protein fused to tandem repeats of FKBP(F36M), a mutant form of the protein that is known as FM and also CAD, and the coding plasmid for which was obtained from ARIAD Pharmaceuticals
(§4) 3) The detectable conjugate was made by fusing tandem repeats of CAD to EGFP [ps1547].
The three conjugates are depicted in diagrammatic form in FIG. 5a. […]
(§5) For compatibility with high throughput screening the cells were grown in microtitre plates for 16 hours from a seeding density of 1.0×10E5 cells per 400 μL, and an extraction procedure (described in Example 3) was used to remove mobile fluorescent components from cells, so that signal from immobile components could be measured. Plates were routinely stained with the nuclear dye Hoechst 22538 to enable correction of the immobile EGFP fluorescence signal from each well for cell density. […]

FRB(T2098L) and FKBP [2] = target: T1, FRB(T2098L) and FKBP; test: 2-part ActinPaint system, response to dimerizer; type: cell-based; details: CHO cells
Protocol: (§6) The first system consists of 2 parts, an anchor conjugated to FRB(T2098L) [plasmid construct ps1570] and a detectable conjugate comprising FKBP fused to EGFP [ps1208]—these conjugates are depicted in FIG. 4a. […] The 2-part assay also acts as counter screen for any compounds that may directly or indirectly affect the location of the anchor protein itself within the cell.
(§7) For compatibility with high throughput screening the cells were grown in microtitre plates for 16 hours from a seeding density of 1.0×10E5 cells per 400 μL, and an extraction procedure (described in Example 3) was used to remove mobile fluorescent components from cells, so that signal from immobile components could be measured. Plates were routinely stained with the nuclear dye Hoechst 22538 to enable correction of the immobile EGFP fluorescence signal from each well for cell density.
Signals from immobile EGFP-labelled components and from the nuclear stain were read on an fluorescence plate reader (Fluoroskan Ascent CF, Labsystems, Finland) equipped with appropriate filter sets (EGFP: excitation 485 nm, emission 527 nm; Hoechst 22538: excitation 355 nm, emission 460 nm). […] For further experiments a dimerizer concentration of 800 nM for 2 hours was selected as giving adequate signal to background for extracted cells to be read on the Ascent plate reader.

FRB(T2098L) and FKBP [3] = target: T1, FRB(T2098L) and FKBP; test: 2-part Histone H2B system, response to dimerizer and competition by FK506; type: cell-based; details: CHO cells
Protocol: The 2-part assay also acts as counter screen for any compounds that may directly or indirectly affect the location of the anchor protein itself within the cell.
as §7, with “immobile components locked in the nucleus could be” for “immobile components could be”
Signals from immobile EGFP-labelled components and from the nuclear stain were read on an fluorescence plate reader (Fluoroskan Ascent CF, Labsystems, Finland) equipped with appropriate filter sets (EGFP: excitation 485 nm, emission 527 nm; Hoechst 22538: excitation 355 nm, emission 460 nm).

FRB(T2098L) and FKBP [4] = target: T1, FRB(T2098L) and FKBP; test: 2-part Src(1-14) system, response to dimerizer; type: cell-based; details: CHO cells, 500 nM AP21967 for 60 minutes
Text: as §6, with “ps1549]” for “ps1570]”, “[ps1208].” for “[ps1208]—these conjugates are depicted in FIG. 4a.”
CHO cells were transfected and cultured essentially as described in Example 2, except the complement of plasmids required for the 2 and 3-part systems were transfected simultaneously rather than sequentially (as described in Example 2).
For selection of co-expressing cells, 2-part system cells transfected with ps1549+ps1208 were cultured with 1 mg/ml zeocin+5 μg/ml blasticidin HCl. Cells of the 3-part system were cultured with 1 mg/ml zeocin+5 μg/ml blasticidin HCl+0.5 mg/ml G418 sulphate.
This redistribution response to dimerizer is robust and can be competed by FK506. In the 3-part system, the response can also be competed by compound AP21998.
Without dimerizer present in the medium, cells from both 2- and 3-part Src(1-14) systems display a more or less uniform distribution of GFP fluorescence, throughout cytoplasmic and nuclear compartments (FIGS. 23a and 24a). Dimerizer addition results in recruitment of the CAD-linked mediator+detectable complexes to the plasma membrane (FIGS. 23b and 24b). […]

FRB(T2098L) and FKBP [5] = target: T1, FRB(T2098L) and FKBP; test: 3-part Src(1-14) system, response to dimerizer; type: cell-based; details: CHO cells, 500 nM AP21967 for 120 minutes
Text: as §1
1) The anchor conjugate was made by fusing c-Src(1-14) to FRB(T2098L) [ps1549]. The cellular localization of the anchor could be detected with an antibody directed against the HA-tag included in the anchor fusion protein
as §3, §4
The three conjugates are depicted in diagrammatic form in FIG. 5a. CAD proteins spontaneously homodimerize, so mediator and detectable conjugates are normally linked together in the 3-part system (FIG. 5b). Therefore in this example, the protein interaction to be tested was the CAD:CAD link between mediator and detectable conjugates. […] The link between CAD proteins can be broken by ARIAD compound AP21998 (FIG. 5d). AP21998 was therefore used as the reference compound to validate the system. […]
Without dimerizer present in the medium, cells from both 2- and 3-part Src(1-14) systems display a more or less uniform distribution of GFP fluorescence, throughout cytoplasmic and nuclear compartments (FIGS. 23a and 24a). […]

[6] = target: T2, CAD:CAD link between mediator and detectable conjugates (Homo sapiens, UniProt P62942, F37M); test: 3-part ActinPaint iGRIP system, interaction inhibitor dose-response (extraction procedure, plate reader); type: cell-based; details: CHO cells
T2 construct: expressed in transfected cells; host or cells: CHO
Text: as §1, §2, §3, §4
The three conjugates are depicted in diagrammatic form in FIG. 5a. CAD proteins spontaneously homodimerize, so mediator and detectable conjugates are normally linked together in the 3-part system (FIG. 5b). Therefore in this example, the protein interaction to be tested was the CAD:CAD link between mediator and detectable conjugates. […] The link between CAD proteins can be broken by ARIAD compound AP21998 (FIG. 5d). AP21998 was therefore used as the reference compound to validate the system. CHO cells were transfected and cultured essentially as described in Example 2, except the complement of plasmids required for the 2 and 3-part systems were transfected simultaneously rather than sequentially (as described in Example 2).
as §5
ActinPaint system. […] Plates were processed for extraction and nuclear staining then read in an Ascent plate reader. […]

[7] = target: T2, CAD:CAD link between mediator and detectable conjugates; test: 3-part Histone H2B iGRIP system, interaction inhibitor dose-response (extraction procedure, plate reader); type: cell-based; details: CHO cells
Text: as §1
1) The anchor conjugate was made by fusing histone H2B to FRB(T2098L) [ps1569] (also referred to as FRB*). The cellular localization of the anchor could be detected with an antibody directed against the HA-tag included in the anchor fusion protein
as §3, §4
The three conjugates are depicted in diagrammatic form in FIG. 5a. CAD proteins spontaneously homodimerize, so mediator and detectable conjugates are normally linked together in the 3-part system (FIG. 5b). Therefore in this example, the protein interaction to be tested was the CAD:CAD link between mediator and detectable conjugates. […] The link between CAD proteins can be broken by ARIAD compound AP21998 (FIG. 5d). AP21998 was therefore used as the reference compound to validate the system.
as §7, with “immobile components locked in the nucleus could be” for “immobile components could be”
Dose-response of this CAD-interaction inhibitor in the 3-part Histone H2B system could be compared with the compound's efficacy and potency in other systems, to determine if similar sensitivity to the inhibitor (and other inhibitors) could be expected from the Histone H2B system. […] Plates were processed for extraction and nuclear staining then read in an Ascent plate reader. […]

[8] = system: transcription factor-based detection system; details: data supplied by ARIAD Pharmaceuticals (RPD kit fact sheet); cited from earlier work
[9] = 1000 nM AP21967, 2 hours, extraction procedure
[10] = AP21998 greater than 5 μM plus 800 nM AP21967, 2 hours

Structure (SMILES) | time after which EGFP labelling of aggregates is clearly visible (FRB(T2098L) and FKBP [1]) | time after which recruitment of fluorescence to F-actin aggregates is visible (FRB(T2098L) and FKBP [2]; 800 nM AP21967, 37° C.) | increase of signal from immobile EGFP-labelled components relative to untreated cells (FRB(T2098L) and FKBP [2]; [9]) | time after which recruitment of fluorescence to the nuclei is visible (FRB(T2098L) and FKBP [3]; 800 nM AP21967, 37° C.) | time to maximum response (recruitment to nuclei) (FRB(T2098L) and FKBP [3]; 800 nM AP21967, 37° C.) | increase of signal from immobile EGFP-labelled components relative to untreated cells (FRB(T2098L) and FKBP [3]; [9]) | EGFP distribution in micrograph (FIG. 23b) (FRB(T2098L) and FKBP [4]) | EGFP distribution in micrograph (FIG. 24b) (FRB(T2098L) and FKBP [5]) | EGFP distribution in micrograph (FIG. 7c) ([6]; 5 μM AP21998 for 2 hours after 800 nM AP21967 for 60 minutes, continued presence of AP21967) | EGFP-label remaining on the F-actin aggregates [6, 10] | EC50 ([6]; co-treated with 800 nM AP21967, 2 hours, 37° C., read-out: EC50 for the prevention of recruitment / removal of EGFP-labelled components from the F-actin aggregates) | EGFP distribution in micrograph (FIG. 15c) ([7]; 800 nM AP21967 + 5 μM AP21998 for 2 hours) | EGFP-label remaining in the nuclei [7, 10] | EC50 ([7]; co-treated with 800 nM AP21967, 2 hours, 37° C., read-out: EC50 for the prevention of recruitment / removal of EGFP-labelled components from the nuclear compartment) | EC50 [8]
CO[C@H]1[C@@H](O)[C@H](C)C[C@H](C)/C=C/C=C/C=C(\C)[C@@H](c2c[nH]c3c(C)cccc23)C[C@@H]2CC[C@@H](C)[C@@](O)(O2)C(=O)C(=O)N2CCCC[C@H]2C(=O)O[C@H]([C@H](C)C[C@@H]2CC[C@@H](O)[C@H](OC)C2)C[C@H](O)[C@H](C)/C=C(\C)[C@H]1O [AP21967] | 15 min | 2 min | approximately 3 fold | 2 min | approximately 10 minutes | approximately 2 fold | recruited to the plasma membrane | recruited to the plasma membrane | – | – | – | – | – | – | –
CC[C@H](C(=O)N1CCCCC1C(=O)O[C@H](CCc1ccc(OC)c(OC)c1)c1cccc(OCC(=O)NCCCN(C)C)c1)c1cc(OC)c(OC)c(OC)c1 (stereo partly drawn) [AP21998] | – | – | – | – | – | – | – | – | The bright aggregates have dispersed into the cytoplasm | no EGFP-label remained on the aggregates | ~1.1 µM | no nuclear accumulation | no EGFP-label remained in the nuclei | ~1.8 µM | ~0.2 µM
